Assay results as given in PMC8151276, “An Integrated Approach toward NanoBRET Tracers for Analysis of GPCR Ligand Engagement” (Molecules, 2021).
Each block holds one compound with its values, some of them ahead of it.

Key:
Assay type in all cases: binding
CCR6 = target: T1, CCR6 (Homo sapiens, UniProt P51684); assay: NanoBRET screen HiBiT-CCR6 in HEK293
T1 construct: purchased Promega (in-house HiBiT-GPCR construct library, NanoBRET)
T1 sequence (P51684 1-374): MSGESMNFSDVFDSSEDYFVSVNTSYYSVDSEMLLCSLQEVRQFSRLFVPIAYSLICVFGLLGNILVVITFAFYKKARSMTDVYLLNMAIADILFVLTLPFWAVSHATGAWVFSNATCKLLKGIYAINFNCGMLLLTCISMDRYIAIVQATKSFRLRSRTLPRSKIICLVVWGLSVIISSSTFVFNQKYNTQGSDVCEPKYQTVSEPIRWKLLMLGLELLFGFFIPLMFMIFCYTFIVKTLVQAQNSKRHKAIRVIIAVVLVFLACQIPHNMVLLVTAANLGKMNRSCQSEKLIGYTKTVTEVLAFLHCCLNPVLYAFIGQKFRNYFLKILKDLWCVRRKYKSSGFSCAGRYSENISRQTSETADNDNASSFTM
Description: (§1) Each tracer candidate was screened across the entire library of HiBiT-GPCR constructs using NanoBRET as the detection modality. As depicted in Figure 4A, the specificity of interactions was evaluated through decrease in BRET due to competitive displacement of a bound tracer by excess parental compound. Each tracer was analyzed for binding to each HiBiT-GPCR fusion in the absence and in the presence of competing parental compound. Briefly, HEK293 cells were transfected with HiBiT-GPCR constructs diluted into promoterless DNA to reduce expression and maximize translocation to the cell surface. Each tracer candidate was then screened at concentrations of 1 μM and 0.1 μM across cells expressing these fusions. Cells were treated for 1.5 h with tracer either alone or in the presence of 20 μM competing parental compound (i.e., control). BRET was measured upon addition of purified LgBiT and subsequent complementation with HiBiT genetically fused to a GPCR. The specificity of interactions was assessed through a decrease in BRET signal due to competitive displacement of the bound tracer. To further gauge the robustness of these interactions, the fold response over the control (i.e., BRETtracer/BRETcontrol) was calculated. We chose a 1.5-fold response, which translates to ≥7-fold signal over noise as the minimal threshold required to score an interaction as positive. […]. Below we highlight the screening results obtained for our exemplary fluorescent tracers based on Clozapine, Amitriptyline and AZD1283.
(§2) HiBiT-GPCR DNA constructs were diluted in 10 mM Tris pH 8 to a final concentration of 0.01 μg/μL, arrayed in 96-well plates and stored at −20 °C. For transfection, HEK293 cells were suspended in Opti-MEM (without phenol red) supplemented with 2% fetal bovine serum (Seradigm) and 100 units/mL penicillin–streptomycin (Gibco) at a final concentration of 220,000 cells/mL and dispensed into white 96-well plates at 90 μL/well. Subsequent transfections and screens were carried using an Agilent Bravo Automated Liquid Handling Platform. First, the 96-well HiBiT DNA arrays were diluted 25-fold in Opti-MEM (without serum or phenol red) to a final concentration of 0.0004 μg/μL and 20 μL of the diluted DNAs were transferred into new 96-well plates. Next, promoterless carrier DNA (1 μg/μL) was diluted 25-fold (0.04 μg/μL) and then dispensed into the diluted arrays at 20 μL/well. Following brief mixing, Viafect transfection reagent (Promega) diluted 16-fold into Opti-MEM was dispensed into the plates at 40 μL/well. After mixing by pipetting, plates were incubated for 10 min on the pipetting station deck. The DNA-transfection reagent complexes were then added to plates containing cells. To facilitate the screen, 10 μL of DNA-transfection reagent complexes were added in duplicates to the top 4 and bottom 4 rows, resulting in two identical 48-well arrays per plate. Plates with transfected cells were incubated for 18–20 h at 37 °C/5% CO2. A screen of each tracer across the entire library using two different concentrations requires duplicate plates of transfected cells. Depending on the number of tracers being screened, transfections can be scaled up using the same ratios. The next day, for each tracer, four 20× screening solutions in tracer dilution buffer (Promega) were prepared: two duplicates at final concentration of 20 μM and two duplicates at a final concentration of 2 μM. A competing unmodified compound was added to one of each duplicate at a final concentration of 400 μM. The four resulting solutions were diluted 4-fold in Opti-MEM without serum or phenol red to generate 5× solutions (5 µM and 0.5 µM tracer +/− 100 μM competing compound). To screen the library, a BioTek MultiFlo FX liquid dispenser was used to dispense 22.5 µL of tracer solution to the top 4 rows and 22.5 µL tracer + competing compound solution to the 4 bottom rows. Plates were briefly mixed on an orbital shaker and incubated for 1.5 h at room temperature. […]

FPR3 = target: T2, FPR3 (Homo sapiens, UniProt P25089); assay: NanoBRET screen HiBiT-FPR3 in HEK293
T2 construct: purchased Promega (in-house HiBiT-GPCR construct library, NanoBRET)
T2 sequence (P25089 1-353): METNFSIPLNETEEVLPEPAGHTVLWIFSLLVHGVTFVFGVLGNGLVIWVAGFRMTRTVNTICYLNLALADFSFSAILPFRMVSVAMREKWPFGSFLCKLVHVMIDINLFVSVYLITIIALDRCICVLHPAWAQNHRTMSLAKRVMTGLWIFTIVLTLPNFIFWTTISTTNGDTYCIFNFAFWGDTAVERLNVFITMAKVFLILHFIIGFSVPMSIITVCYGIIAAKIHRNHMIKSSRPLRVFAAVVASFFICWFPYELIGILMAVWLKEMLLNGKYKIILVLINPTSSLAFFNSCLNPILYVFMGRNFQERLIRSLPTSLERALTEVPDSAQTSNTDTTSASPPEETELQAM
Description: as §1, §2

NMUR1 = target: T3, NMUR1 (Homo sapiens, UniProt Q9HB89); assay: NanoBRET screen HiBiT-NMUR1 in HEK293
T3 construct: purchased Promega (in-house HiBiT-GPCR construct library, NanoBRET)
T3 sequence (Q9HB89 1-426): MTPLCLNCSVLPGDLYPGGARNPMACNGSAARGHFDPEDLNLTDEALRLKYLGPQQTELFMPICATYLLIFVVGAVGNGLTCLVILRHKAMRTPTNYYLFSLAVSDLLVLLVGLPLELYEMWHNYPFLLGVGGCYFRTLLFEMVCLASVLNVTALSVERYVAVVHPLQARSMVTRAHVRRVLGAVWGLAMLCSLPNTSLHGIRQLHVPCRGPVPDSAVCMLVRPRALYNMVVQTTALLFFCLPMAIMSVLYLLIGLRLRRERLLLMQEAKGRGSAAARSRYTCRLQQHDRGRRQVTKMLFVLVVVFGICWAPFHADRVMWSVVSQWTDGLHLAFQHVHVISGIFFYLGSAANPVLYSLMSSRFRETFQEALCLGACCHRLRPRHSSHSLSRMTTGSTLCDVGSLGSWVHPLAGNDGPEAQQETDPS
Description: as §1, §2

SSTR4 = target: T4, SSTR4 (Homo sapiens, UniProt P31391); assay: NanoBRET screen HiBiT-SSTR4 in HEK293
T4 construct: purchased Promega (in-house HiBiT-GPCR construct library, NanoBRET)
T4 sequence (P31391 whole entry): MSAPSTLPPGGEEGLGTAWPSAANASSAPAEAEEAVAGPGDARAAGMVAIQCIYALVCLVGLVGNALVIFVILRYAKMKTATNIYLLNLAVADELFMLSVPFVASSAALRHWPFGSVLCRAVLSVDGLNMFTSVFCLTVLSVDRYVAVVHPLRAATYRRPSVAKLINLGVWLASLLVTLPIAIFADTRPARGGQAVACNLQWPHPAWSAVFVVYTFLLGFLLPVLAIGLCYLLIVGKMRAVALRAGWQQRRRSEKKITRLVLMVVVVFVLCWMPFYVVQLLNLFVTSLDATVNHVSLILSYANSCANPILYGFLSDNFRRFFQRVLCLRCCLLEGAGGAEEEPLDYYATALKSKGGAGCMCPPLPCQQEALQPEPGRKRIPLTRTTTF
Description: as §1, §2

[1] = tracer at 0.1μM, listed as amitriptyline-b-2-NB590
[2] = tracer at 1μM, listed as amitriptyline-b-2-NB590

- NanoBRET Fold Response (CCR6; CCR6, 0.1μM): 1.06
- NanoBRET Fold Response (CCR6; CCR6, 1μM): 1.08
- NanoBRET Fold Response (FPR3; FPR3, 0.1μM): 1.08
- NanoBRET Fold Response (FPR3; FPR3, 1μM): 1.06
- NanoBRET Fold Response (NMUR1; NMUR1, 0.1μM): 1.05
- NanoBRET Fold Response (NMUR1; NMUR1, 1μM): 1.04
- NanoBRET Fold Response (SSTR4; SSTR4, 0.1μM): 1.10
- NanoBRET Fold Response (SSTR4; SSTR4, 1μM): 1.07
SMILES: CCOC(=O)c1cc(C#N)c(N2CCC(C(=O)NS(=O)(=O)Cc3ccccc3/C=C/C(=O)NCCNC(=O)CCc3ccc4n3[B-](F)(F)[N+]3=C(c5ccc[nH]5)C=CC3=C4)CC2)nc1C [AZD1283-1-NB590]

- NanoBRET Fold Response (CCR6; CCR6, tracer 0.1μM): 0.96
- NanoBRET Fold Response (CCR6; CCR6, tracer 1μM): 1.00
- NanoBRET Fold Response (FPR3; FPR3, tracer 0.1μM): 1.21
- NanoBRET Fold Response (FPR3; FPR3, tracer 1μM): 1.13
- NanoBRET Fold Response (NMUR1; NMUR1, tracer 0.1μM): 1.05
- NanoBRET Fold Response (NMUR1; NMUR1, tracer 1μM): 0.98
- NanoBRET Fold Response (SSTR4; SSTR4, tracer 0.1μM): 1.08
- NanoBRET Fold Response (SSTR4; SSTR4, tracer 1μM): 1.00
SMILES: N#CN=C(NCCCOc1cccc(CN2CCCCC2)c1)NCCNC(=O)CCOCCOCCOCCOCCNC(=O)CCc1ccc2n1[B-](F)(F)[N+]1=C(c3ccc[nH]3)C=CC1=C2 [Aminopotentidine-2-NB590]

SMILES: CN(C)CCC=C1c2ccccc2CCc2ccc(C(=O)NCCNC(=O)CCOCCOCCOCCOCCNC(=O)CCc3ccc4n3[B-](F)(F)[N+]3=C(c5ccc[nH]5)C=CC3=C4)cc21 [Amitriptyline-a-2-NB590]
- NanoBRET Fold Response (CCR6; tracer at 0.1μM): 0.96
- NanoBRET Fold Response (CCR6; tracer at 1μM): 0.94
- NanoBRET Fold Response (FPR3; tracer at 0.1μM): 0.96
- NanoBRET Fold Response (FPR3; tracer at 1μM): 1.07
- NanoBRET Fold Response (NMUR1; tracer at 0.1μM): 1.01
- NanoBRET Fold Response (NMUR1; tracer at 1μM): 0.99
- NanoBRET Fold Response (SSTR4; tracer at 0.1μM): 1.09
- NanoBRET Fold Response (SSTR4; tracer at 1μM): 1.09

SMILES: CN(C)CCC=C1c2ccccc2CCc2ccc(C(=O)NCCNC(=O)CCOCCOCCOCCOCCNC(=O)CCc3ccc4n3[B-](F)(F)[N+]3=C(c5ccc[nH]5)C=CC3=C4)cc21 [Amitriptyline-b-2-NB590]
- NanoBRET Fold Response (CCR6; [1]): 1.01
- NanoBRET Fold Response (CCR6; [2]): 1.01
- NanoBRET Fold Response (FPR3; [1]): 1.27
- NanoBRET Fold Response (FPR3; [2]): 1.02
- NanoBRET Fold Response (NMUR1; [1]): 1.14
- NanoBRET Fold Response (NMUR1; [2]): 1.10
- NanoBRET Fold Response (SSTR4; tracer at 0.1μM): 1.16
- NanoBRET Fold Response (SSTR4; tracer at 1μM): 0.99

SMILES: CN(CCC=C1c2ccccc2CCc2ccccc21)C(=O)CCOCCOCCOCCOCCNC(=O)CCc1ccc2n1[B-](F)(F)[N+]1=C(c3ccc[nH]3)C=CC1=C2 [Amitriptyline-e-2-NB590]
- NanoBRET Fold Response (CCR6; tracer at 1μM): 1.00
